PMC12489660, “Multitargeted Caffeic Acid Derivatives Inhibit Cardiac RyR2- and NaV1.5- Channels but Stimulate SERCA2a Pump Activity” (ACS Omega, 2025)
Where “and” joins values, the source holds several entries; their conditions need not be identical. Identical values can stand only once.

System: not listed separately
Assay: PermeaPad membrane permeability
Type: in vitro ADME
Conditions: not told, room temperature, class low/medium in parentheses, read-out: P e (permeability rate)
Description: We determined permeability rates (P e ), which are a measure of how fast a compound can cross a membrane, using cell-free transport models (PermeaPad, innoME GmbH) The CA derivatives have medium to low permeability rates in the range 1.0–24.0 nm/s (Table ). Similar to S36, despite poor permeability, compounds 2–4, 8, and 9 acted on live RyR2-HEK-293 R-CEPIA1er cells inhibiting RyR2. […] Since PermeaPad is an artificial model that primarily reflects passive diffusion, it is likely that additional mechanisms contribute to the crossing of cell membranes by these compounds.
Membrane permeability was assessed using PermeaPad Plate according to the manufacturing procedure (innoME GmbH, Espelkamp, Germany). Briefly, 200 μL (V A) water was added into acceptor plate. 200 μL (V D) of 100–500 μM test compound in water was added directly to the well membranes of the donor plate. The donor plate contains a biomimetic membrane for simulating passive mass transfer through different barriers in the body. Then the donor plate was placed into the acceptor plate wells and incubated at room temperature for 24 h in dark. To determine peak absorbance of test compounds, absorbance spectra of acceptor solutions and initial solutions for each test compound were read out. The Permeability Rate (P e) was calculated using the formula:
P e = C × −ln (1 – ODA/ODB) cm/s, where OD A is the absorbance of acceptor solution, OD B is the absorbance of the standard solution; if the compound is able to permeabilize the membrane and fully reach equilibrium, 250 μM will be the final concentration of solution in the donor and acceptor wells. The coefficient C was calculated using the formula: C=VD×VA/(VD+VA)×Area×time where V A–acceptor volume (cm^3), V D–donor volume (cm^3), membrane area 0.24 cm^2, time is 86,400 s.

Papp at 24 h	SMILES
0.4 ×10⁻⁶ cm/s	COc1ccc2c(c1)CN(CCCCCCCCNC/C=C/c1ccc(O)c(O)c1)CCS2 [Compound 9]
0.1 ×10⁻⁶ cm/s	COc1ccc2c(c1)CN(CCCCCCCC[NH+]([BH2-]C#N)C/C=C/c1ccc(O)c(O)c1)CCS2 (stereo not drawn) [Compound 13]

Target: SERCA2 (Mus musculus, UniProt O55143)
Sequence (O55143 1-994 limits assumed): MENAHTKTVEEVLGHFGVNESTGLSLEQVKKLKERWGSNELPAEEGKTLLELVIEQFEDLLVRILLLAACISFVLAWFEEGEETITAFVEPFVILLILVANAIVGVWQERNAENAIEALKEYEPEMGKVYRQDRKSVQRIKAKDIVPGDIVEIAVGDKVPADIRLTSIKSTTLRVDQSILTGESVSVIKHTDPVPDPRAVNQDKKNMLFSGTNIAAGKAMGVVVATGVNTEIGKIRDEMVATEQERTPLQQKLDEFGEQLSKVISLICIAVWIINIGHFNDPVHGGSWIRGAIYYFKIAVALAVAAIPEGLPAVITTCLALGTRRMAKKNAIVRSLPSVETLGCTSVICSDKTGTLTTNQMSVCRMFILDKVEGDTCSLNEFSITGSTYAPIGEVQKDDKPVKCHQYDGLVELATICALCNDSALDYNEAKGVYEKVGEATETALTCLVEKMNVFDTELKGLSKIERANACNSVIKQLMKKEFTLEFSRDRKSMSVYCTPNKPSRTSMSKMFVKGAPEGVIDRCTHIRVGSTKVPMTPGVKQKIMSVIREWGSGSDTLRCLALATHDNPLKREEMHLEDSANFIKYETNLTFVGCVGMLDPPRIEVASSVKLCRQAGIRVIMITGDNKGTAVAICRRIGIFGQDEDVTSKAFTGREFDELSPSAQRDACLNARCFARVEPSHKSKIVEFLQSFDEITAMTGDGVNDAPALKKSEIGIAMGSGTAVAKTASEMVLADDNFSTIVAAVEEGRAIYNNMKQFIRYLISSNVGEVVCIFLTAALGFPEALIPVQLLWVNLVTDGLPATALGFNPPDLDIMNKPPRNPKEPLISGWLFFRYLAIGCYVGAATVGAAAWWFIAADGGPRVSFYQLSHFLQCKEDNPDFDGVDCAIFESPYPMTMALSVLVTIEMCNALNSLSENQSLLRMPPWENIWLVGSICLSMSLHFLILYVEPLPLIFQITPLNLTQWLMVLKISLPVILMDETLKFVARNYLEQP
Assay: Caffeine induced calcium release assay on live HL-1 cardiomyocytes;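 also: Read-out: caffeine-evoked peak minus basal fluorescence (ΔF Caff) of cytoplasmic FLIPR Calcium 6 dye, recorded for 1 min, compared with Tyrode's solution plus 0.1 v/v% DMSO as control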
Type: cell-based
Conditions: 10 μM; percentage from the control sample (100%); mean ± SEM

activation of SERCA2 in HL-1	SMILES
164.0 ± 3.0%	COc1ccc2c(c1)CN(CCCCCCCCNC/C=C/c1ccc(O)c(O)c1)CCS2 [Compound 9]
299.1 ± 12.8%	COc1ccc2c(c1)CN(CCCCCCCC[NH+]([BH2-]C#N)C/C=C/c1ccc(O)c(O)c1)CCS2 (stereo not drawn) [Compound 13]

Same assay, conditions: HL-1 cells, 2 h preincubation, 10 mM caffeine; read-out: activation of SERCA2 in HL-1, EC50 (converted)

EC50	SMILES
10900 nM	COc1ccc2c(c1)CN(CCCCCCCCNC/C=C/c1ccc(O)c(O)c1)CCS2 [Compound 9]
2500 nM	COc1ccc2c(c1)CN(CCCCCCCC[NH+]([BH2-]C#N)C/C=C/c1ccc(O)c(O)c1)CCS2 (stereo not drawn) [Compound 13]

Same assay, conditions: HL-1 cells, from 1 to 10 μM; bell-shaped dose response, decreased at higher doses

stimulatory effect compared to the control	SMILES
up to 300%	COc1ccc2c(c1)CN(CCCCCCCC[NH+]([BH2-]C#N)C/C=C/c1ccc(O)c(O)c1)CCS2 (stereo not drawn) [Compound 13]

System: HL-1 cells
Assay: CytoTox-Glo Cytotoxicity Assay
Type: cell-based
Conditions: 24 h, concentrations up to 1 μM
Method: Cell viability was assessed using CytoTox-Glo Cytotoxicity Assay according to the manufacturing procedure (Promega GmbH). Briefly, HL-1 cells were cultivated for 24 h in black-walled, clear-bottom 96-well microplates (Corning) covered with fibronectin/gelatin in DMEM, containing different concentrations of the tested compound (10,000 cells/well). Luminescence of a luminogenic peptide substrate was measured before and after addition of the lysis reagent (digitonin). The viable cell contribution was determined by a subtractive method. 0.1% DMSO treated cell were taken as a control.

SMILES	viability of HL-1 cells (in words)
COc1ccc2c(c1)CN(CCCCCCCCNC/C=C/c1ccc(O)c(O)c1)CCS2 [Compound 9]	remained unchanged
COc1ccc2c(c1)CN(CCCCCCCC[NH+]([BH2-]C#N)C/C=C/c1ccc(O)c(O)c1)CCS2 (stereo not drawn) [Compound 13]	remained unchanged

Target: T1, wild type mouse RyR2 (Mus musculus, UniProt E9Q401)
T1 construct: expressed in transfected cells; host or cells: HEK-293 cells stably expressing WT RyR2 and R-CEPIA1er (gift of Dr. Takashi Murayama), induced with doxycycline
Assay: Time-lapse [Ca2+]ER assay in HEK-293 RyR2 R-CEPIA1er cells (RyR2 activity assay);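 also: ER Ca2+ read as R-CEPIA1er fluorescence ratio F/F0 (F0 mean of initial 90 s, F mean of final 100 s), compared with vehicle-treated control wells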
Type: cell-based
Conditions: 25 μM, vs control 0.1 v/v% DMSO

effect on RyR2 activity / [Ca2+]ER (in words)	SMILES
significantly increased [Ca^2+]ER	COc1ccc2c(c1)CN(CCCCCCCCNC/C=C/c1ccc(O)c(O)c1)CCS2 [Compound 9]
significantly increased [Ca^2+]ER	COc1ccc2c(c1)CN(CCCCCCCC[NH+]([BH2-]C#N)C/C=C/c1ccc(O)c(O)c1)CCS2 (stereo not drawn) [Compound 13]
increase in R-CEPIA1er fluorescence	COc1ccc2c(c1)CN(C(=O)C(=O)O)CCS2 [Compound S36, reference compound]

Same assay, conditions: 25 μM; percentage from the control sample (100%); mean ± SEM

RyR2 activity	SMILES
105.7 ± 0.4%	COc1ccc2c(c1)CN(CCCCCCCCNC/C=C/c1ccc(O)c(O)c1)CCS2 [Compound 9]
103.0 ± 0.4%	COc1ccc2c(c1)CN(CCCCCCCC[NH+]([BH2-]C#N)C/C=C/c1ccc(O)c(O)c1)CCS2 (stereo not drawn) [Compound 13]
103.4 ± 0.7%	COc1ccc2c(c1)CN(C(=O)C(=O)O)CCS2 [Compound S36, reference compound]

System: not given
Assay: not given
Design: method as in earlier work
Conditions: class low in parentheses; ref (number not given); cited from earlier work

SMILES	P e (permeability rate)
COc1ccc2c(c1)CN(C(=O)C(=O)O)CCS2 [Compound S36, reference compound]	1.0 (low, ref ) 10^–6 cm/s

Target: human NaV1.5 (Homo sapiens, UniProt Q14524)
Sequence (Q14524 1-460 limits assumed): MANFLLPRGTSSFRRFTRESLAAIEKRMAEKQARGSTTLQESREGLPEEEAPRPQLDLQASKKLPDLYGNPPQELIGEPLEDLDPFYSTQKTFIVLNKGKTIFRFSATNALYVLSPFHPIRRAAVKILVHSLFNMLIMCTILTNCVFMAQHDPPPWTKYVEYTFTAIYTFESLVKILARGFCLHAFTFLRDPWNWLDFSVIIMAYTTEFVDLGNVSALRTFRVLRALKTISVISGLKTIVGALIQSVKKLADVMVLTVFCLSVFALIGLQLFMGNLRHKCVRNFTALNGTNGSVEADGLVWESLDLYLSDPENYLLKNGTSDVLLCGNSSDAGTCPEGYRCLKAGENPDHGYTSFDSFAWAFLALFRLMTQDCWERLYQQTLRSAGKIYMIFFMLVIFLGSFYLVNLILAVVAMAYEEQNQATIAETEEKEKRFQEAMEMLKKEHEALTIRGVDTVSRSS
Sequence (Q14524 661-1004 limits assumed): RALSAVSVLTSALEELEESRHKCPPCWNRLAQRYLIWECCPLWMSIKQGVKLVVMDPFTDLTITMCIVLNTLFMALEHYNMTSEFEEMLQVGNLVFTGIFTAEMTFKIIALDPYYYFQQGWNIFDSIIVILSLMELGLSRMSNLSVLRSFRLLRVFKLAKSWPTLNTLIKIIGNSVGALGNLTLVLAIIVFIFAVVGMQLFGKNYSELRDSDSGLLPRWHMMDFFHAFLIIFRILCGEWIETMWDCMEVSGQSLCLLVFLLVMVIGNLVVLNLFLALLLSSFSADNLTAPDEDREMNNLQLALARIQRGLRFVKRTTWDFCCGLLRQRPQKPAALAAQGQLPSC
Sequence (Q14524 1142-2016 limits assumed): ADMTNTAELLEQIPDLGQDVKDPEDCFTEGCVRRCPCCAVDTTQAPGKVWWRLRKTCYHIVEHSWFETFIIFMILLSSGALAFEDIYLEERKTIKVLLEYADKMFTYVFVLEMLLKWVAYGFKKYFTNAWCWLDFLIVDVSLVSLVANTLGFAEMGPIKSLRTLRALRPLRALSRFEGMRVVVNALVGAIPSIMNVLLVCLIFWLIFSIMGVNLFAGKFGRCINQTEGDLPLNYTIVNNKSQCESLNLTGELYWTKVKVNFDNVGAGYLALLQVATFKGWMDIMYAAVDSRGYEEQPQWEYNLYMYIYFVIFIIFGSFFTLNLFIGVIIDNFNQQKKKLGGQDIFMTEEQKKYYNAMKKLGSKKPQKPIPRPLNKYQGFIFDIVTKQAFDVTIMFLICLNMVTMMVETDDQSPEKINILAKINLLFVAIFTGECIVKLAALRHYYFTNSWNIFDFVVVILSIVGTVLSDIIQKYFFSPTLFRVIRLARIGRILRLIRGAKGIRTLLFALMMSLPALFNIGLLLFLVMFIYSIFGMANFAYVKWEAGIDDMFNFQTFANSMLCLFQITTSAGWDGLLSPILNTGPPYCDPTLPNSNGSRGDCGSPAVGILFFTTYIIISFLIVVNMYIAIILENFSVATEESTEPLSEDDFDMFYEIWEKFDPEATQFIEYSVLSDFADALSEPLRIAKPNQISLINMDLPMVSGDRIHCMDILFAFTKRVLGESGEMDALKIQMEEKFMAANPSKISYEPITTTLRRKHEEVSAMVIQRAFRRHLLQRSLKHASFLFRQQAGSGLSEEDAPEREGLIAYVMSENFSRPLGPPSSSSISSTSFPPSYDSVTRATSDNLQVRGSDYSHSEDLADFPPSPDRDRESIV
Assay: FLIPR membrane potential assay on CHO NaV1.5 Duo cells (veratridine-induced)
Type: cell-based
Conditions: 10 μM; percentage from the control sample (100%); mean ± SEM

SMILES	NaV1.5 activity in CHO cells
COc1ccc2c(c1)CN(CCCCCCCCNC/C=C/c1ccc(O)c(O)c1)CCS2 [Compound 9]	106.0 ± 1.0%
COc1ccc2c(c1)CN(CCCCCCCC[NH+]([BH2-]C#N)C/C=C/c1ccc(O)c(O)c1)CCS2 (stereo not drawn) [Compound 13]	83.3 ± 0.9%

Same assay, conditions: concentration range 0.1 to 100 μM

SMILES	effect on NaV1.5 activity (in words)
COc1ccc2c(c1)CN(CCCCCCCCNC/C=C/c1ccc(O)c(O)c1)CCS2 [Compound 9]	no effect on NaV1.5
COc1ccc2c(c1)CN(C(=O)C(=O)O)CCS2 [Compound S36, reference compound]	no effect on NaV1.5 activity

Target: T2, SERCA2a (Mus musculus, UniProt O55143)
T2 construct: from tissue; host or cells: adult mouse heart ventricles, microsomal membrane vesicles
T2 sequence (O55143 1-998 isoform O55143-2): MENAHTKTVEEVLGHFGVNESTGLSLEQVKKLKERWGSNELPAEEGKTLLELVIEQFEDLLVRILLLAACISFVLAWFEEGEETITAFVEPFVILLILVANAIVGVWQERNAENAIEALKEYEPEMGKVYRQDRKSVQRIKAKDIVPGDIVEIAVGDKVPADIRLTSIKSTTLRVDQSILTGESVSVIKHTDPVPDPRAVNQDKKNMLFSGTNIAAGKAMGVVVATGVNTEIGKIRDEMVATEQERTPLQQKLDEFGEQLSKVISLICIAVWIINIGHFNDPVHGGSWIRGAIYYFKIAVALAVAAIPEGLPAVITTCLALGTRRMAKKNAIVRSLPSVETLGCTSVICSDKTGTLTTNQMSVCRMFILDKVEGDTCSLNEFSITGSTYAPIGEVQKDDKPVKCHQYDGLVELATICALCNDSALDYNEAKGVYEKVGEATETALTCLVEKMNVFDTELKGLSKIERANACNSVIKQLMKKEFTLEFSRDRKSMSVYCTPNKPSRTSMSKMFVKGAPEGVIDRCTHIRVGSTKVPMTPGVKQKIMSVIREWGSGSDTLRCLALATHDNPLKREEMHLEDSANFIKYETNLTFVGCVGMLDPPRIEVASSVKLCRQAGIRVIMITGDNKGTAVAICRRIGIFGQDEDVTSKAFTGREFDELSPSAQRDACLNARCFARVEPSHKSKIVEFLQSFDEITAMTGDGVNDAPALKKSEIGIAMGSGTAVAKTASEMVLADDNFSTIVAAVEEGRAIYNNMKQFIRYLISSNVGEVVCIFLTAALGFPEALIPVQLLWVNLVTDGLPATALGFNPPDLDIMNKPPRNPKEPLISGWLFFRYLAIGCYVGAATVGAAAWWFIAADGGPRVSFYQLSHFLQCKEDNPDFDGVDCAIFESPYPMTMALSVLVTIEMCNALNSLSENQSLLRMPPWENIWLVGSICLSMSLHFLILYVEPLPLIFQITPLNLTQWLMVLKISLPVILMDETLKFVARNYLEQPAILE
Assay: NADH-coupled ATPase assay on microsomal membrane vesicles from mouse heart ventricles (mouse SER)
Type: biochemical
Conditions: 10 μM; percentage from the control sample (100%); mean ± SEM
Method: To this end, we tracked the rate of nicotinamide adenine dinucleotide (NADH) oxidation linked to ATP hydrolysis by observing changes in NADH fluorescence over time. This was done after addition of ATP to solutions containing microsomal membranes enriched with SER vesicles isolated from adult mouse heart ventricles (mouse SER). The NADH fluorescence decrease was recorded on a FlexStation 3 Multimode Microplate Reader. […] We detected the highest increase in ATPase activity (up to 118%), when the vesicles were treated with borate complex 11–13 (Table ). We tested compounds 11–13 in the NADH assay buffer to see whether these compounds could contribute to the rate of NADH fluorescence reduction (Figures S7–S9). No significant deviations were found in the rate of NADH consumption compared to the control sample (0.1 v/v% DMSO).
Isolation of Microsomal Membrane Vesicles from mouse hearts was done according to procedure described earlier. All animal procedures were performed in accordance with national and institutional regulations.
Mouse ventricular microsomes (4–5 μg of total protein) were diluted in 100 μL of the assay buffer used for measurement of SERCA activity (described below) and incubated at room temperature for 10 min prior to the experiments. The measurements of SERCA2 activity were made at 25 °C by using a NADH -coupled ATPase assay as described in Radnai et al. with slight modifications. Briefly, the assay buffer contained 60 mM MOPS, 120 mM KCl, 6 mM MgCl2, 1 mM EGTA, 5 mM NaN3, 0.5 mM phosphoenolpyruvate and 0.67 mM CaCl2, pH 7.0. Before the reaction was started by the injection of 10 μL ATP (resulting in 2 mM final concentration in the well), 5 units/mL of both lactate dehydrogenase and pyruvate kinase, 0.5 mM NADH, and 1 μM Ca^2+ ionophore A-23187 (Sigma, C-7522) were added to the diluted sample with or without the tested compound (volume −150 μL). […] The NADH fluorescence decrease was recorded each 2 s for 5 min course on a FlexStation 3 Multi-Mode Microplate Reader in 96-well glass bottom plates (MatTek Corporation; Cat. No. PBK96G-1.5-5-F). Fluorescence was evoked by 380 nm excitation wavelength and collected in a bottom-read mode at 425 nm, cutoff–470 nm, 4 flashes per read. ATP was injected at 60 s, speed–125 μL/s, pipet height–140 μL. The data were analyzed with computer software GraphPad Prism version 8.3.1 (GraphPad Software, Inc.). The difference in signal decrease with and without microsomes was taken as an indicator for the additional ATPase activity performed by SERCA2. The obtained values for maximal SERCA2 activity were normalized for total protein concentration. Maximal SERCA2 activity values are reported as percentages of control (0.1% DMSO) values. Microsomal samples that were kept on ice until usage and set to 100%.

ATPase activity of SERCA2a in mouse SER	SMILES
113.1 ± 2.1%	COc1ccc2c(c1)CN(CCCCCCCCNC/C=C/c1ccc(O)c(O)c1)CCS2 [Compound 9]
115.5 ± 3.7%	COc1ccc2c(c1)CN(CCCCCCCC[NH+]([BH2-]C#N)C/C=C/c1ccc(O)c(O)c1)CCS2 (stereo not drawn) [Compound 13]

Same assay, conditions: kinetic rate of NADH–NAD+ conversion; Figure S10: 200 µM free Ca2+

EC50	SMILES
41 nM and 41.2 nM	COc1ccc2c(c1)CN(CCCCCCCCNC/C=C/c1ccc(O)c(O)c1)CCS2 [Compound 9]
23 nM and 23.1 nM	COc1ccc2c(c1)CN(CCCCCCCC[NH+]([BH2-]C#N)C/C=C/c1ccc(O)c(O)c1)CCS2 (stereo not drawn) [Compound 13]
